Source: ChEMBL document CHEMBL3885861, “Open TG-GATES”

Organism: Rattus norvegicus
Test: Open TG-GATES - Regimen: Single
Assay type: toxicity, organism-based, Sprague-Dawley
Parameters: regimen Single, gender Male, age 6 weeks
Details: in vivo, iv, route intravenous injection; for APTT / Bas / Eos / Fbg / Hb / Ht / Lym / MCH / MCHC / MCV / Mono / Neu / PT / Plat / RBC / Ret / WBC: tissue Blood; for KIDNEY_L / KIDNEY_R / KIDNEY_TOTAL: tissue Kidney; for LIVER: tissue Liver; for A/G / ALP / ALT / AST / BUN / CRE / Ca / Cl / DBIL / GLC / IP / K / LDH / Na / PL / RALB / TBIL / TC / TG / TP / gamma-GTP: tissue Plasma
[1] = 0 mg/kg, 3 h, dose level Control
[2] = 0 mg/kg, 6 h, dose level Control
[3] = 0 mg/kg, 9 h, dose level Control
[4] = 0 mg/kg, 24 h, dose level Control

## C[C@@H]1[C@H](O)[C@@H](C)/C=C/C=C/C=C/C=C/C=C/C=C/C=C/[C@H](O[C@@H]2O[C@H](C)[C@@H](O)[C@H](N)[C@@H]2O)C[C@@H]2O[C@](O)(C[C@@H](O)C[C@@H](O)[C@H](O)CC[C@@H](O)C[C@@H](O)CC(=O)O[C@H]1C)C[C@H](O)[C@H]2C(=O)O [AMPHOTERICIN B]
[1]
  TERMINAL_BW: 219.1 g
  APTT: 17.6 s
  Bas: 0%
  Eos: 0.6%
  Fbg: 275.4 mg/dL
  Hb: 13.2 g/dL
  Ht: 39.1%
  Lym: 78.4%
  MCH: 20.8 pg
  MCHC: 33.9%
  MCV: 61.3 fL
  Mono: 2.6%
  Neu: 17.2%
  PT: 13.1 s
  Plat: 131.5 x10_4/uL
  RBC: 638.4 x10_4/ul
  Ret: 7%
  WBC: 102.7 x10_2/uL
  KIDNEY_L: 0.9 g
  KIDNEY_R: 1 g
  KIDNEY_TOTAL: 1.9 g
  LIVER: 9.9 g
  A/G: 0.8
  ALP: 1671 IU/L
  ALT: 40.4 IU/L
  AST: 86 IU/L
  BUN: 11.4 mg/dL
  CRE: 0.2 mg/dL
  Ca: 11 mg/dL
  Cl: 106.2 meq/L
  DBIL: 0.02 mg/dL
  GLC: 167.2 mg/dL
  IP: 8.3 mg/dL
  K: 3.9 meq/L
  LDH: 67 IU/L
  Na: 142 meq/L
  PL: 130.4 mg/dL
  RALB: 2.5 g/dL
  TBIL: 0.066 mg/dL
  TC: 75.4 mg/dL
  TG: 58.8 mg/dL
  TP: 5.5 g/dL
  gamma-GTP: 1.6 IU/L
[2]
  TERMINAL_BW: 212 g
  APTT: 17 s
  Bas: 0%
  Eos: 0.8%
  Fbg: 271.2 mg/dL
  Hb: 13.4 g/dL
  Ht: 39.9%
  Lym: 77.2%
  MCH: 21.1 pg
  MCHC: 33.6%
  MCV: 62.6 fL
  Mono: 1.8%
  Neu: 19.6%
  PT: 13.1 s
  Plat: 129.4 x10_4/uL
  RBC: 637.4 x10_4/ul
  Ret: 8.6%
  WBC: 90.4 x10_2/uL
  KIDNEY_L: 0.9 g
  KIDNEY_R: 0.9 g
  KIDNEY_TOTAL: 1.9 g
  LIVER: 8.8 g
  A/G: 0.8
  ALP: 1553.8 IU/L
  ALT: 35.6 IU/L
  AST: 68 IU/L
  BUN: 8.4 mg/dL
  CRE: 0.1 mg/dL
  Ca: 10.6 mg/dL
  Cl: 105 meq/L
  DBIL: 0.014 mg/dL
  GLC: 182.2 mg/dL
  IP: 9.9 mg/dL
  K: 3.9 meq/L
  LDH: 50.8 IU/L
  Na: 142 meq/L
  PL: 125.8 mg/dL
  RALB: 2.5 g/dL
  TBIL: 0.064 mg/dL
  TC: 76.2 mg/dL
  TG: 46.8 mg/dL
  TP: 5.5 g/dL
  gamma-GTP: 1.6 IU/L
[3]
  TERMINAL_BW: 208.7 g
  APTT: 17.4 s
  Bas: 0%
  Eos: 1%
  Fbg: 281.4 mg/dL
  Hb: 13.4 g/dL
  Ht: 39.1%
  Lym: 71.8%
  MCH: 21.1 pg
  MCHC: 34.2%
  MCV: 61.6 fL
  Mono: 1.8%
  Neu: 24.4%
  PT: 13.2 s
  Plat: 136.6 x10_4/uL
  RBC: 635 x10_4/ul
  Ret: 8.1%
  WBC: 80.2 x10_2/uL
  KIDNEY_L: 0.9 g
  KIDNEY_R: 0.9 g
  KIDNEY_TOTAL: 1.8 g
  LIVER: 8.3 g
  A/G: 0.8
  ALP: 1611.8 IU/L
  ALT: 30.6 IU/L
  AST: 67.6 IU/L
  BUN: 8.6 mg/dL
  CRE: 0.1 mg/dL
  Ca: 10.6 mg/dL
  Cl: 106.4 meq/L
  DBIL: 0.018 mg/dL
  GLC: 170.2 mg/dL
  IP: 9.7 mg/dL
  K: 3.7 meq/L
  LDH: 54.8 IU/L
  Na: 142.2 meq/L
  PL: 120.8 mg/dL
  RALB: 2.5 g/dL
  TBIL: 0.068 mg/dL
  TC: 72.6 mg/dL
  TG: 43.8 mg/dL
  TP: 5.6 g/dL
  gamma-GTP: 1.8 IU/L
[4]
  TERMINAL_BW: 228.2 g
  APTT: 15.8 s
  Bas: 0.2%
  Eos: 1%
  Fbg: 302.6 mg/dL
  Hb: 13 g/dL
  Ht: 38.7%
  Lym: 78.8%
  MCH: 20.9 pg
  MCHC: 33.6%
  MCV: 62.4 fL
  Mono: 2.2%
  Neu: 17%
  PT: 12.3 s
  Plat: 145.5 x10_4/uL
  RBC: 621.8 x10_4/ul
  Ret: 7.1%
  WBC: 93.8 x10_2/uL
  KIDNEY_L: 1 g
  KIDNEY_R: 1 g
  KIDNEY_TOTAL: 1.9 g
  LIVER: 10.4 g
  A/G: 0.9
  ALP: 1818.6 IU/L
  ALT: 37.6 IU/L
  AST: 66.8 IU/L
  BUN: 15.2 mg/dL
  CRE: 0.2 mg/dL
  Ca: 11 mg/dL
  Cl: 105.6 meq/L
  DBIL: 0.02 mg/dL
  GLC: 169 mg/dL
  IP: 7.7 mg/dL
  K: 3.8 meq/L
  LDH: 53.2 IU/L
  Na: 143.4 meq/L
  PL: 133.4 mg/dL
  RALB: 2.6 g/dL
  TBIL: 0.054 mg/dL
  TC: 74.2 mg/dL
  TG: 96.8 mg/dL
  TP: 5.8 g/dL
  gamma-GTP: 1.6 IU/L
1 mg/kg, 3 h, dose level Low
  TERMINAL_BW: 214.2 g
  APTT: 16.8 s
  Bas: 0%
  Eos: 0.6%
  Fbg: 257 mg/dL
  Hb: 13.6 g/dL
  Ht: 39.9%
  Lym: 74.6%
  MCH: 21.2 pg
  MCHC: 34.1%
  MCV: 62 fL
  Mono: 3.2%
  Neu: 20.6%
  PT: 13 s
  Plat: 139.1 x10_4/uL
  RBC: 644.6 x10_4/ul
  Ret: 7.7%
  WBC: 97.1 x10_2/uL
  KIDNEY_L: 1 g
  KIDNEY_R: 1 g
  KIDNEY_TOTAL: 1.9 g
  LIVER: 9.8 g
  A/G: 0.9
  ALP: 1691 IU/L
  ALT: 40 IU/L
  AST: 85.4 IU/L
  BUN: 18.8 mg/dL
  CRE: 0.2 mg/dL
  Ca: 10.9 mg/dL
  Cl: 106.6 meq/L
  DBIL: 0.018 mg/dL
  GLC: 173.4 mg/dL
  IP: 8.6 mg/dL
  K: 3.9 meq/L
  LDH: 58.8 IU/L
  Na: 143.2 meq/L
  PL: 129.4 mg/dL
  RALB: 2.6 g/dL
  TBIL: 0.058 mg/dL
  TC: 74 mg/dL
  TG: 53.8 mg/dL
  TP: 5.6 g/dL
  gamma-GTP: 2 IU/L
1 mg/kg, 6 h, dose level Low
  TERMINAL_BW: 208.2 g
  APTT: 15.4 s
  Bas: 0%
  Eos: 0.8%
  Fbg: 286.6 mg/dL
  Hb: 13.3 g/dL
  Ht: 39.5%
  Lym: 68.6%
  MCH: 20.9 pg
  MCHC: 33.7%
  MCV: 62 fL
  Mono: 2.8%
  Neu: 27%
  PT: 12.8 s
  Plat: 135.3 x10_4/uL
  RBC: 636.4 x10_4/ul
  Ret: 7.9%
  WBC: 98.4 x10_2/uL
  KIDNEY_L: 1 g
  KIDNEY_R: 0.9 g
  KIDNEY_TOTAL: 1.9 g
  LIVER: 9 g
  A/G: 0.8
  ALP: 1534.4 IU/L
  ALT: 38.2 IU/L
  AST: 70.8 IU/L
  BUN: 16.4 mg/dL
  CRE: 0.1 mg/dL
  Ca: 10.7 mg/dL
  Cl: 106.6 meq/L
  DBIL: 0.016 mg/dL
  GLC: 180 mg/dL
  IP: 10.1 mg/dL
  K: 3.4 meq/L
  LDH: 57.2 IU/L
  Na: 144.6 meq/L
  PL: 135 mg/dL
  RALB: 2.6 g/dL
  TBIL: 0.062 mg/dL
  TC: 83.8 mg/dL
  TG: 41.4 mg/dL
  TP: 5.7 g/dL
  gamma-GTP: 1.4 IU/L
1 mg/kg, 9 h, dose level Low
  TERMINAL_BW: 208.6 g
  APTT: 16.5 s
  Bas: 0%
  Eos: 1%
  Fbg: 296.2 mg/dL
  Hb: 13.2 g/dL
  Ht: 38.5%
  Lym: 71.4%
  MCH: 20.9 pg
  MCHC: 34.2%
  MCV: 61 fL
  Mono: 1.8%
  Neu: 25.4%
  PT: 12.9 s
  Plat: 132.4 x10_4/uL
  RBC: 631.6 x10_4/ul
  Ret: 7.9%
  WBC: 97.1 x10_2/uL
  KIDNEY_L: 0.9 g
  KIDNEY_R: 0.9 g
  KIDNEY_TOTAL: 1.9 g
